Two compounds from patent publication US20220288040A1, “USE OF PYRVINIUM FOR THE TREATMENT OF A RAS PATHWAY MUTATED ACUTE MYELOID LEUKEMIA” (INSERM (INSTITUT NATIONAL DE LA SANTÉ ET DE LA RECHERCHE …, priority 2019, published 2022) can be followed below.

SMILES strings stand for the structures.

The test system of one series is NRAS^G12A-mutated AML. It is filed as in vivo. The following applies: person, trametinib 2 mg/d, hydroxycarbamide 2000 mg daily.
Series [1] has as its system RAS pathway activated TF-1, Ba/F3 and UT-7 cells. Nature of the series: Trametinib dose-range cytotoxicity in RAS pathway activated cell lines. The settings on record: three fold-dilutions dose-range. Format: cell-based, human; murine. On the procedure:
UptiBlue: Cells were seeded in 100 μl of culture medium for 48 hours. […] The UptiBlue viable cell-counting reagent (Interchim, Montluçon, France) was then added for 4 hours and fluorescence was measured with a Typhoon 8600 scanner (GE Healthcare BioSciences, Buc, France).

As for `NC(=O)NO` [hydroxycarbamide], the “white blood cell count / leukocytosis” value in the series with NRAS^G12A-mutated AML (second course) was “limited efficacy”. In the series with NRAS^G12A-mutated AML, the toxicity in patient result is listed as “hematological toxicity”.
With `CC(=O)Nc1cccc(-n2c(=O)n(C3CC3)c(=O)c3c(Nc4ccc(I)cc4F)n(C)c(=O)c(C)c32)c1` [trametinib], in series [1], the “cytotoxicity in RAS activated cells compared to isogenic control cells” value is given as “marked enhancement of trametinib cytotoxicity”. Besides, the toxicity in patient result with NRAS^G12A-mutated AML was “neurological toxicity”.
